Results from ChEMBL document CHEMBL1909046, “DrugMatrix in vitro pharmacology data”.

How the values were obtained:
Insulin receptor = Insulin receptor (Rattus norvegicus, UniProt P15127); type: cell membranes, Wistar, Liver, Membrane; further: in other assays of this panel Not Active means under 50% inhibition at 10 µM
[1] = biological target: T1, Muscarinic acetylcholine receptor M5 (Homo sapiens, UniProt P08912); type: cell membranes, CHO-K1, Membrane; conditions: cho-k1; further: in other assays of this panel Not Active means under 50% inhibition at 10 µM
T1 sequence (P08912 whole entry): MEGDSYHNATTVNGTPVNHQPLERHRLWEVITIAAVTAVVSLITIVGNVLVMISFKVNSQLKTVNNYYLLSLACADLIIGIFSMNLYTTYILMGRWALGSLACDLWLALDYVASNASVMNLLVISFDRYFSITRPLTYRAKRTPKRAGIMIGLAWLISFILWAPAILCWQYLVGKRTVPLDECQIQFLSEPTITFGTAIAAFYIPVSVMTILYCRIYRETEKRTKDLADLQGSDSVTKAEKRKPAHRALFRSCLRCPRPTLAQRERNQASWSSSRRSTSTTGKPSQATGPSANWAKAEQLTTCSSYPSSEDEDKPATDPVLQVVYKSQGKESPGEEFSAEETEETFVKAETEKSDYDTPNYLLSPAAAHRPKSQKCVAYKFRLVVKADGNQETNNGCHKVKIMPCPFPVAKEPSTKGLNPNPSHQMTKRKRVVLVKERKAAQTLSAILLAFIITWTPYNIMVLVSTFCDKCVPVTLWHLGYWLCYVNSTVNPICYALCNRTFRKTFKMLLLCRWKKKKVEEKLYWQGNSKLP

[2] = DRUGMATRIX: Nicotinic Acetylcholine radioligand binding (ligand: [125I] Epibatidine); type: cell membranes, Membrane; conditions: imr-32; Not Active = under 50% inhibition at 10 µM
Adenosine receptor A1 = biological target: T2, Adenosine receptor A1 (Homo sapiens, UniProt P30542); type: cell membranes, CHO, Membrane;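 further: radioligand binding assay at the adenosine A1 receptor, with DPCPX serving as the labelled ligand; in other assays of this panel Not Active means under 50% inhibition at 10 µM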
T2 sequence (P30542 whole entry): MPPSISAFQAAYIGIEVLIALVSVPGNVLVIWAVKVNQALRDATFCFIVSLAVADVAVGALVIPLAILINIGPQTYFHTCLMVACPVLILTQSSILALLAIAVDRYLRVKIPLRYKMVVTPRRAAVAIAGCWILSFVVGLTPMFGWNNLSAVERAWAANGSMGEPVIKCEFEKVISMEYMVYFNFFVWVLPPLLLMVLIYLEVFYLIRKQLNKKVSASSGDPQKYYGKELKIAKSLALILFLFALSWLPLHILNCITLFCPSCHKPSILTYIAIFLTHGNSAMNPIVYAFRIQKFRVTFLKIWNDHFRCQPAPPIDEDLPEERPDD

Adenosine receptor A3 = biological target: T3, Adenosine receptor A3 (Homo sapiens, UniProt P0DMS8); type: cell membranes, CHO-K1, Membrane; conditions: cho-k1;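 further: radioligand binding assay with AB-MECA serving as the labeled ligand; in other assays of this panel Not Active means under 50% inhibition at 10 µM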
T3 sequence (P0DMS8 whole entry): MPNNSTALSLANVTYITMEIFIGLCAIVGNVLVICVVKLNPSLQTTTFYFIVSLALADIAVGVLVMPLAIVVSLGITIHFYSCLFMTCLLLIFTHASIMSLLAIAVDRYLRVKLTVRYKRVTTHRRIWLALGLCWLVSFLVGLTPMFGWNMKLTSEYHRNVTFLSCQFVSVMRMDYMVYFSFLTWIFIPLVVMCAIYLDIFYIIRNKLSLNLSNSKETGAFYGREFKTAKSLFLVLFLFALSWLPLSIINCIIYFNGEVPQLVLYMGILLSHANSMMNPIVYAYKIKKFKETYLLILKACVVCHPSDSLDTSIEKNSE

Insulin receptor, sequence (P15127 27-759 limits assumed): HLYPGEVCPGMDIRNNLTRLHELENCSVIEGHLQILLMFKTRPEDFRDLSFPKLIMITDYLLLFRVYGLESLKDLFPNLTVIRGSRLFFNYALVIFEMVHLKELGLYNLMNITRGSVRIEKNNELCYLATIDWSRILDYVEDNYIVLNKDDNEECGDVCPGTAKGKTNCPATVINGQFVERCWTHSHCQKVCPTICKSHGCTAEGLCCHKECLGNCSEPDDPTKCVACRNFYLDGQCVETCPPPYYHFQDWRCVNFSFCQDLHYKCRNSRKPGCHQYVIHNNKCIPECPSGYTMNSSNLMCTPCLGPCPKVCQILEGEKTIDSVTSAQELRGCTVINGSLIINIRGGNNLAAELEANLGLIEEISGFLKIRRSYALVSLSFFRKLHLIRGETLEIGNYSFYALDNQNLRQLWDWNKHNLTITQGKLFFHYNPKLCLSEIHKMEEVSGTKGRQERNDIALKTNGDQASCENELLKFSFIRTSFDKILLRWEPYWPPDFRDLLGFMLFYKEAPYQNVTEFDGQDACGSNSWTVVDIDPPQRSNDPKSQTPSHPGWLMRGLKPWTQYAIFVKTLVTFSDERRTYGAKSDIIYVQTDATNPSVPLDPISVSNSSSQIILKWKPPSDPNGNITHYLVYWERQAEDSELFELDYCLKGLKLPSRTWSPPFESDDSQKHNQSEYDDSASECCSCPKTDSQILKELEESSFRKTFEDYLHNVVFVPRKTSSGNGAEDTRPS
Insulin receptor, sequence (P15127 764-1383 limits assumed): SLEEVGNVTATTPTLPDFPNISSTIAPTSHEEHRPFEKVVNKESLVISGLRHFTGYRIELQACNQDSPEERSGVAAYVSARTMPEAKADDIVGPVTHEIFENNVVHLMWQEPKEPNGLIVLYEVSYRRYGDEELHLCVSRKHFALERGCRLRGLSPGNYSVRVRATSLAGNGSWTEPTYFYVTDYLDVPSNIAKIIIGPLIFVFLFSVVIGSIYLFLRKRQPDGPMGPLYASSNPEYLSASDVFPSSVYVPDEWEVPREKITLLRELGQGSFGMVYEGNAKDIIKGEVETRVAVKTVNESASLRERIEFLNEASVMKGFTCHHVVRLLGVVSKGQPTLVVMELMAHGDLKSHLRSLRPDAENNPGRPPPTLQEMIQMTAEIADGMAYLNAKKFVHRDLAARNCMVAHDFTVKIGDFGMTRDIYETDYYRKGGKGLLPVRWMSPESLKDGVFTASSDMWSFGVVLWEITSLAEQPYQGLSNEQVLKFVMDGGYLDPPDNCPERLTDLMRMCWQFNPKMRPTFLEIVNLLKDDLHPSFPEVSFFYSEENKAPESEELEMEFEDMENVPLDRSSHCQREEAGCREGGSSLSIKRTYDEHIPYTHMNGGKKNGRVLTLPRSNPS

SMILES	IC50 (Insulin receptor)	IC50 [1]	IC50 [2]	Ki [2]	IC50 (Adenosine receptor A1; cho)	IC50 (Adenosine receptor A3)	IC50 (Adenosine receptor A1; read-out: IC50) [µM]	Ki (Adenosine receptor A1; read-out: Ki) [µM]
O=C(N/N=C/c1ccc([N+](=O)[O-])o1)c1cc([N+](=O)[O-])cc([N+](=O)[O-])c1O [NIFURSOL]	Not Active	Not Active	Not Active	Not Active	Not Active	Not Active		
COC(=O)Nc1nc2ccc(C(=O)c3cccs3)cc2[nH]1 [NOCODAZOLE]	Not Active	Not Active	Not Active	Not Active		Not Active	50.3	29.4
C#CC1(O)CC[C@H]2[C@@H]3CCC4=CC(=O)CC[C@@H]4[C@H]3CC[C@@]21CC (some centres not stated) [NORGESTREL]	Not Active	Not Active	Not Active	Not Active	Not Active	Not Active		
COC(=O)Nc1nc2ccc([S+]([O-])c3ccccc3)cc2[nH]1 (configuration not stated) [OXFENDAZOLE]	Not Active	Not Active	Not Active	Not Active	Not Active	Not Active		
CC(=O)O[C@H]1C(=O)[C@@]2(C)[C@H]([C@H](OC(=O)c3ccccc3)[C@]3(O)C[C@H](OC(=O)[C@H](O)[C@@H](NC(=O)c4ccccc4)c4ccccc4)C(C)=C1C3(C)C)[C@]1(OC(C)=O)CO[C@@H]1C[C@@H]2O [PACLITAXEL]	Not Active	Not Active	Not Active	Not Active	Not Active	Not Active		
C[n+]1ccc(-c2cc[n+](C)cc2)cc1.[Cl-].[Cl-] [PARAQUAT DICHLORIDE]	Not Active	Not Active	Not Active	Not Active	Not Active	Not Active		
CC(C)NCC(O)COc1cccc2[nH]ccc12 (configuration not stated) [PINDOLOL]	Not Active	Not Active	Not Active	Not Active	Not Active	Not Active		
CCn1cc(C(=O)O)c(=O)c2cnc(N3CCCC3)nc21 [PIROMIDIC ACID]	Not Active	Not Active	Not Active	Not Active	Not Active	Not Active		
C[n+]1ccccc1/C=N/O.[Cl-] [PRALIDOXIME CHLORIDE]	Not Active	Not Active	Not Active	Not Active	Not Active	Not Active		
COc1cc2nc(N3CCN(C(=O)c4ccco4)CC3)nc(N)c2cc1OC [PRAZOSIN]	Not Active	Not Active	Not Active	Not Active	Not Active	Not Active		
C[C@]12C=CC(=O)C=C1CC[C@@H]1[C@@H]2[C@@H](O)C[C@@]2(C)[C@H]1CC[C@]2(O)C(=O)CO [PREDNISOLONE]	Not Active	Not Active	Not Active	Not Active	Not Active	Not Active		
CC(=O)[C@H]1[C@H](C#N)C[C@H]2[C@@H]3CC=C4C[C@@H](O)CC[C@]4(C)[C@H]3CC[C@@]21C [PREGNENOLONE CARBONITRILE]	Not Active	Not Active	Not Active	Not Active	Not Active	Not Active		
CCCN(CCC)S(=O)(=O)c1ccc(C(=O)O)cc1 [PROBENECID]	Not Active	Not Active	Not Active	Not Active	Not Active	Not Active		
CCCNCC(O)COc1ccccc1C(=O)CCc1ccccc1 (configuration not stated) [PROPAFENONE]	Not Active	Not Active	Not Active	Not Active	Not Active	Not Active		
CCCOc1ccc(C(=O)OCCN(CC)CC)cc1N [PROPARACAINE]	Not Active	Not Active	Not Active	Not Active	Not Active	Not Active		
CC(C)c1cccc(C(C)C)c1O [PROPOFOL]	Not Active	Not Active	Not Active	Not Active	Not Active	Not Active		
